Measured values reported in patent US20080194531A1, “Methods for Treating Visual Disorders” (priority 2005, published 2008).
“Also recorded” adds a separate entry of the source.

Tests used:
apoptosis = details: in vitro and in vivo; blocking classic pathways, induction of survival pathways; cited from earlier work
[1] = system: neurologic injury after acute ischemic or hemorrhagic stroke; details: cited from earlier work
[2] = system: Huntington's disease animal models; details: animal models of Huntington's disease; cited from earlier work
[3] = system: inherited retinal degeneration (rds mouse); details: preliminary work; cited from earlier work
Parkinsonian rats = details: cited from earlier work
[4] = system: neurosensory retinal degeneration (P23H rat); assay: Outer nuclear layer (ONL) cell counting / retinal histopathology in homozygous P23H rats given TUDCA subcutaneously; type: in vivo
Description: We have studied the use of bile acids (tauroursodeoxycholic acid, TUDCA) for inhibition of neurosensory retinal degeneration in an animal model of retinal degeneration (P23H rat).
Animal Studies: The P23H rat model of inherited retinal degeneration is an animal model of a common mutation found in >10% of autosomal dominantly inherited retinitis pigmentosa in humans. This animal model has been studied in the laboratory of Dr. Olsen at the University of Minnesota. The mechanism of retinal degeneration is mediated by apoptosis, but may follow a separate pathway than that of the rds mouse. The P23H rat model represents a protein conformational disorder that leads to retinal degeneration. Other examples of protein conformation disorders include Huntington's and Parkinson's disease.
(§1) Preliminary Study: Homozygous line 1 and line 3 P23H rats (very strong model of rapid retinal degeneration, especially in the homozygous state), were given 100-200 mg/kg/d of TUDCA via subcutaneous injections while control animals will be given placebo vehicle only. Animals were sacrificed at intervals that correspond to the known retinal degenerations. Eyes were enucleated and the neurosensory retina was examined for signs of neuroprotection by counting the cell nuclei in the various retinal layers (FIG. 1; study design). For each animal studied, 14 sections were taken for each eye with 30-50 separate measurements performed and averaged for each section. Counting the average number of outer nuclear layer (ONL) cells was used to determine the level of retinal injury or loss.

[5] = Animal weight recordings in TUDCA-treated P23H rats; type: in vivo, rat; details: p<0.05, TUDCA 100-200 mg/kg/d subcutaneous, suggests systemic toxicity
Method: as §1

## C[C@H](CCC(=O)NCCS(=O)(=O)O)[C@H]1CC[C@H]2[C@@H]3[C@@H](O)C[C@@H]4C[C@H](O)CC[C@]4(C)[C@H]3CC[C@]12C [TUDCA, tauroursodeoxycholic acid]
apoptosis
  interruption of apoptosis: will interrupt apoptosis
[1]
  protection against neurologic injury: protect against neurologic injury
[2]
  neuroprotection: neuroprotective
[3]
  electroretinographic response (functional test of vision): preservation of visual function
  protection of the inner nuclear layer of the retina: dramatic protection of the inner nuclear layer of the retina
Parkinsonian rats
  graft survival: improved graft survival
[4]; homozygous P23H rat line 1, week 12, TUDCA 100-200 mg/kg/d subcutaneous, FIG. 2
  thickness of the ONL in histopathologic images, drug treated vs vehicle: visible difference in the thickness of the drug treated ONL as compared to the vehicle
[4]; homozygous P23H rat line 1, weeks 7, 10 and 12, TUDCA 100-200 mg/kg/d subcutaneous, FIG. 3
  average number of ONL cells, TUDCA vs vehicle controls: no statistically significant differences; also recorded: no statistically significant protective effect
[4]; homozygous P23H rat line 3, 9 week post-natal time point, p=0.16 (not statistically significant), TUDCA 100-200 mg/kg/d subcutaneous, FIG. 4
  rate of retinal degeneration by counting the ONL layer thickness: trend toward a protective effect
[4]; homozygous P23H rat line 3, TUDCA 100-200 mg/kg/d subcutaneous, FIG. 2
  thickness of the ONL in histopathologic images, drug treated vs control: less noticeable difference between the drug treated and the control
[5]; P23H rat line 1, by day 37 and beyond
  animal weight, treated vs controls: significant weight loss
[5]; P23H rat line 3, by day 37 and beyond
  animal weight, treated vs controls: significant weight loss
